Test results from patent US9301961B2, “Autoimmune and inflammatory disorder therapy” (Katholieke Universiteit Leuven, K.U. Leuven R&D, priority 2011, dated 2016).

Target: T1, LOK (h) (Homo sapiens, UniProt O94804)
T1 construct: purchased Millipore
Experiment: Commercial kinase activity assay (Millipore, 33P-ATP filter)
Format: biochemical
Conditions: 10 μM test compound
Procedure: LOK (h) was incubated with 8 mM MOPS pH 7.0, 0.2 mM EDTA, 250 μM […], 10 mM MgAcetate and [γ-^33P-ATP] (specific activity approx. 500 cpm/pmol, concentration as required). The reaction was initiated by the addition of the MgATP mix. After incubation for 40 minutes at room temperature, the reaction was stopped by the addition of 3% phosphoric acid solution. 10 μL of the reaction was then spotted onto a P30 filtermat and washed three times for 5 minutes in 75 mM phosphoric acid and once in methanol prior to drying and scintillation counting. PI3K p110β/p85α (h) PI3K (p110β/p85α) (h) was incubated in assay buffer containing 10 μM phosphatidylinositol-4,5-bisphosphate and MgATP (concentration as required). The reaction was initiated by the addition of the MgATP mix. After incubation for 30 minutes at room temperature, the reaction was stopped by the addition of stop solution containing EDTA and biotinylated phosphatidylinositol-3,4,5-trisphosphate. Finally, detection buffer was added, which contains europium-labelled anti-GST monoclonal antibody, GST-tagged GRP1 PH domain and streptavidinallophycocyanin. The plate was then read in time-resolved fluorescence mode and the homogenous time-resolved fluorescence (HTRF®) signal determined according to the formula HTRF=10000×(Em665nm/Em620 nm). YSK4 (h) YSK4 (h) was incubated with 8 mM MOPS pH 7.0, 0.2 mM EDTA, 250 […], 10 mM MgAcetate and [γ-^33P-ATP] (specific activity approx. 500 cpm/pmol, concentration as required). The reaction was initiated by the addition of the MgATP mix. After incubation for 40 minutes at room temperature, the reaction was stopped by the addition of 3% phosphoric acid solution. 10 μL of the reaction was then spotted onto a P30 filtermat and washed three times for 5 minutes in 75 mM phosphoric acid and once in methanol prior to drying and scintillation counting. PI4KA (PI4K alpha) The 2× PI4KA (PI4K alpha)/PI Lipid Kinase Substrate mixture was prepared in 20 mM Tris, pH 7.5, 0.4% Triton X-100, 5 mM MgCl2, 0.5 mM EGTA. The final 10 μL Kinase Reaction consisted of 75-300 ng PI4KA (PI4K alpha) and 100 μM PI Lipid Kinase Substrate in 7.5 mM HEPES, 10 mM Tris, pH 7.5, 0.2% Triton X-100, 2.5 mM MgCl2, 0.25 mM EGTA. After the 1 hour Kinase Reaction incubation, 5 μL of Detection Mix consisting of a europium labeled anti-ADP antibody, an Alexa Fluor® 647 labeled ADP tracer, and EDTA (to stop the kinase reaction) was added to the assay well. ADP formed by the kinase reaction (in the absence of an inhibitor) displaced the Alexa Fluor® 647 labeled ADP tracer from the antibody, resulting in a decrease in the TR-FRET signal. […] PI4KB (PI4K beta) The 2× PI4KB (PI4K beta)/PI Lipid Kinase Substrate mixture was prepared in 50 mM HEPES pH 7.5, 0.1% CHAPS, 1 mM EGTA, 4 mM MgCl2. […]

T1 sequence (O94804 whole entry): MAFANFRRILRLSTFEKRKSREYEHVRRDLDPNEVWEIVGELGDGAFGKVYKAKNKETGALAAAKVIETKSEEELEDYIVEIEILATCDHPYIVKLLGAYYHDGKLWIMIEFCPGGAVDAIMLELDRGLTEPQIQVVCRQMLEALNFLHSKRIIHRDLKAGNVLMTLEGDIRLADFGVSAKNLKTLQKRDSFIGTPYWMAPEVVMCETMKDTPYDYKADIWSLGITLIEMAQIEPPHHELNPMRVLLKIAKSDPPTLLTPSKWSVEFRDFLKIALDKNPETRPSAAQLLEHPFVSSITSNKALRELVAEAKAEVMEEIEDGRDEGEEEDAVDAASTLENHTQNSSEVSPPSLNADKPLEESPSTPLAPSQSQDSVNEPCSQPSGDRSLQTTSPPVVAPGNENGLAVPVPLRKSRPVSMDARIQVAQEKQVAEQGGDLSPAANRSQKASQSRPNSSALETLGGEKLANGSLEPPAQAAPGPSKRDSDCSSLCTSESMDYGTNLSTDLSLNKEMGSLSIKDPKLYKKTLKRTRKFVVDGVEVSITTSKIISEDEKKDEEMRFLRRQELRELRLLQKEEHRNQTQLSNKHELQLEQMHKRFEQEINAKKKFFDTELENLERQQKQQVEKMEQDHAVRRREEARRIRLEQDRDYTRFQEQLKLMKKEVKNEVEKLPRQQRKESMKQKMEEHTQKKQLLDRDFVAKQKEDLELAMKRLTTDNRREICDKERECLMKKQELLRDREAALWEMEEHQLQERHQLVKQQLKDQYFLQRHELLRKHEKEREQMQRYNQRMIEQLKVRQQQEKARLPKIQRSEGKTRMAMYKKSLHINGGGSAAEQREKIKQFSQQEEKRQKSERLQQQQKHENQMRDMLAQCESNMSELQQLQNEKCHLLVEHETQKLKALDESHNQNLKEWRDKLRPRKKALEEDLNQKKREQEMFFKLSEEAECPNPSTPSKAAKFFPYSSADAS

## Nc1nc(N2CCN(C(=O)COc3ccc(Cl)cc3)CC2)c2nc(-c3cccnc3)sc2n1 [formula (1), 5-amino-7-[4-(4-chlorophenoxyacetyl)piperazin-1-yl]-2-(pyridin-3-yl)thiazolo[5,4-d]pyrimidine]
  Kinase activity: 117 percentage of control
